# Laboratory results taken from patent US11591323B2, “Muscarinic agonists as non-steroidal and non-opioid analgesics and methods of use thereof” (Barry University, priority 2019, dated 2023).
# Where “and” joins values, the source holds several entries; their conditions need not be identical. Equal values may be shown once. Read-outs that look alike come from different tables or passages of the source.
# Tests used:
# Parameters in all cases: host or cells: CHO cells, stably transfected
# [1] = molecular target: T1, M3 muscarinic receptor (Homo sapiens, UniProt P20309); assay: [3H]NMS competition binding, M3 CHO membranes; conditions: competition with 1 nM [3H]NMS; read-out: Inhibition constants (Ki) as negative logarithms, M3 (converted)
# [2] = molecular target: T2, M5 muscarinic receptor (Homo sapiens, UniProt P08912); assay: accumulation of IPX, M5 CHO cells (M5Gq); format: cell-based; conditions: for EC50: read-out: pEC50 (converted)
# T2 sequence (P08912 1-532): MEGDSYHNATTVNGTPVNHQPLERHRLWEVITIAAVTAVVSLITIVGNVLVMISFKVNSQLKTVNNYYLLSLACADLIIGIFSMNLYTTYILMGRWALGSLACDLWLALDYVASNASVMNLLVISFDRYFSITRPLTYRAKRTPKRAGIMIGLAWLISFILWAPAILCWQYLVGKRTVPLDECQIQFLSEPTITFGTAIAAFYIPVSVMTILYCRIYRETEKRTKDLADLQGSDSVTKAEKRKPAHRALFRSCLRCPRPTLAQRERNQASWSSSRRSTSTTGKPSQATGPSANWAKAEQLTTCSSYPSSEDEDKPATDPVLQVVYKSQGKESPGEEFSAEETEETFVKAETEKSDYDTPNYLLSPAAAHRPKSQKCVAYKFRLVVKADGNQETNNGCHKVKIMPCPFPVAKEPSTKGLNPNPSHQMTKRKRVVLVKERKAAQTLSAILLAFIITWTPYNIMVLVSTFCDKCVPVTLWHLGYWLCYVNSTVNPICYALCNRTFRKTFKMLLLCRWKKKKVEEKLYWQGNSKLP
# [3] = molecular target: T3, M1 muscarinic receptor (Homo sapiens, UniProt P11229); assay: [3H]NMS competition binding, M1 CHO membranes; conditions: competition with 1 nM [3H]NMS; read-out: Inhibition constants (Ki) as negative logarithms, M1 (converted)
# T3 sequence (P11229 1-460): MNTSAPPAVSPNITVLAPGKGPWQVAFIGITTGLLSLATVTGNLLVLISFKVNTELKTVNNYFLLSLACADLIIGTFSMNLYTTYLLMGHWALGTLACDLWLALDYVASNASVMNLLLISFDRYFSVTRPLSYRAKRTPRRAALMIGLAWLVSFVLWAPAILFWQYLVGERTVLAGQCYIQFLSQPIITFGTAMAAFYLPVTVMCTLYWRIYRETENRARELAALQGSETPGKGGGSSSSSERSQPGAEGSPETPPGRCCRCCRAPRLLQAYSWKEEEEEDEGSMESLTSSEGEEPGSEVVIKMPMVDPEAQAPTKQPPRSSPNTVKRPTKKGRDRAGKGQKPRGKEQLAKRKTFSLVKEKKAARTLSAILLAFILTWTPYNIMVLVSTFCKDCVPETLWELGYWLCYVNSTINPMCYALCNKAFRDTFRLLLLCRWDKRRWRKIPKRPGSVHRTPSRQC
# [4] = molecular target: T4, M2 muscarinic receptor (Homo sapiens, UniProt P08172); assay: [3H]NMS competition binding, M2 CHO membranes
# T4 sequence (P08172 1-466): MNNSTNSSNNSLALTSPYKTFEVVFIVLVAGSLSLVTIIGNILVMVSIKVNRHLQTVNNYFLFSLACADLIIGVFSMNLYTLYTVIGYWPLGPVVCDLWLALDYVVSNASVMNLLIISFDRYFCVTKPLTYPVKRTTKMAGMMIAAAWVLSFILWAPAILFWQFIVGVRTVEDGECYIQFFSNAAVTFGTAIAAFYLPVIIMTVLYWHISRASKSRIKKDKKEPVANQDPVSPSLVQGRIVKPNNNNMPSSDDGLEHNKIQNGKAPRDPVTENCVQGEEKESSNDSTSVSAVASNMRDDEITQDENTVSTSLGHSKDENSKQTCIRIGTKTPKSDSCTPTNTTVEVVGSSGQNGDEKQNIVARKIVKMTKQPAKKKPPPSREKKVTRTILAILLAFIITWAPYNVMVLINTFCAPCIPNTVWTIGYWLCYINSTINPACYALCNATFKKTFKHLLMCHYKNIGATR
# [5] = molecular target: T2, M5 muscarinic receptor; assay: [3H]NMS competition binding, M5 CHO membranes; conditions: competition with 1 nM [3H]NMS; read-out: Inhibition constants (Ki) as negative logarithms, M5 (converted)
# [6] = molecular target: T1, M3 muscarinic receptor; assay: accumulation of IPX, M3 CHO cells (M3Gq); format: cell-based; conditions: for Kd: read-out: pKA (converted); for EC50: read-out: pEC50 (converted)
# [7] = molecular target: T3, M1 muscarinic receptor; assay: accumulation of inositol phosphates IPX, M1 CHO cells (M1Gq); format: cell-based; conditions: for Kd: operational model, read-out: pKA (converted); for EC50: read-out: pEC50 (converted)
# [8] = molecular target: T4, M2 muscarinic receptor; assay: inhibition of forskolin-stimulated cAMP, M2 CHO cells (M2Gi); format: cell-based; conditions: for Emax: CHO, read-out: E′MAX; for Kd: operational model, read-out: pKA (converted); for EC50: read-out: pEC50 (converted)
# [9] = M5 (↑IPX), preferential response, Table 7
# [10] = M5 (↑IPX), preferential response, relative to carbachol, Tables 2, 3, 7
# [11] = competition with 1 nM [3H]NMS, read-out: Inhibition constants (Ki) as negative logarithms, M2 (converted)
# [12] = M3 (↑IPX), preferential response, Table 7
# [13] = M3 (↑IPX), preferential response, Table 7, operational efficacy
# [14] = M3 (↑IPX), preferential response, Table 7, operational model
# [15] = M3 (↑IPX), preferential response, relative to carbachol, Tables 2, 3, 7
# [16] = M3 (↑IPX), preferential response, to carbachol, Tables 2, 3, 7
# [17] = M1 (↑IPX), preferential response, Table 7
# [18] = M1 (↑IPX), preferential response, Table 7, operational efficacy
# [19] = M1 (↑IPX), preferential response, relative to carbachol, Tables 2, 3, 7
# [20] = M1 (↑IPX), preferential response, to carbachol, Tables 2, 3, 7
# [21] = M2 (↓cAMP), preferential response, Table 7
# [22] = M2 (↓cAMP), preferential response, Table 7, operational efficacy
# [23] = M2 (↓cAMP), preferential response, to carbachol, Tables 2, 3, 7
# [24] = M2Gi (↓cAMP), Table 8, to carbachol
# T1 sequence (P20309 whole entry): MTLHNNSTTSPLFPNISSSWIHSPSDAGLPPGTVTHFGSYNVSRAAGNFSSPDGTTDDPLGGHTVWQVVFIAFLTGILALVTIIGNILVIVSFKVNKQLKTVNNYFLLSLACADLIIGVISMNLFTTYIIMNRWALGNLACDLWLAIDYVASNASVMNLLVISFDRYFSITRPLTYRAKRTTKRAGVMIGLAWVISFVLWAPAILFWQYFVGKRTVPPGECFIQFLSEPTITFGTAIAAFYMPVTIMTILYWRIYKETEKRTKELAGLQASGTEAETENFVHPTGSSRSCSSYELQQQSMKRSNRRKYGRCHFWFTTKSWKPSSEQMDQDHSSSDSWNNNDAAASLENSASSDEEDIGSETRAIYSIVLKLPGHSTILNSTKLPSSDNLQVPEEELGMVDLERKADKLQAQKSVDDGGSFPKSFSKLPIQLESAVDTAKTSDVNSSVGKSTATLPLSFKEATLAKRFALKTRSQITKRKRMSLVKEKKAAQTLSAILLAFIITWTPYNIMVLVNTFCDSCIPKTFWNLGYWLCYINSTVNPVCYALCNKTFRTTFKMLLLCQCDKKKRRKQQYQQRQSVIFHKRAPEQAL
smiles,measurement,setting,value
"Cc1ccc(C[N+]2(C)CC=CCC2)s1.[I-] (centres unmarked) [Compound 7B, 1-methyl-1-[(5-methylthiophen-2-yl)methyl]-1,2,3,6-tetrahydropyridin-1-ium iodide]",Ki,[1],5.25 µM
same,E′MAX,[2]; [9],1.47 ± 0.07 fold over basal
same,τ,"[2]; M5 (↑IPX), preferential response, Table 7, operational efficacy",0.02 ± 0.01
same,Kd,"[2]; M5 (↑IPX), preferential response, Table 7, operational model, read-out: pKA (converted)",5.01 µM
same,EC50,[2]; [9],4.37 µM
same,RAi,[2]; [10],0.0021 ± 0.0009
same,Δlog(τ/KA),"[2]; M5 (↑IPX), preferential response, to carbachol, Tables 2, 3, 7",2.67 ± 0.41
same,Ki,[3],3.98 µM
same,Ki,[4]; [11],2.29 µM
same,Ki,"[4]; high-affinity fraction of binding to M2, read-out: high affinity binding",~0.03 µM
same,Ki,[5],3.39 µM
same,E′MAX,[6]; [12],4.4 ± 0.4 fold over basal
same,τ,[6]; [13],0.14 ± 0.01
same,Kd,[6]; [14],5.01 µM
same,EC50,[6]; [12],8.32 µM
same,RAi,[6]; [15],0.0077 ± 0.0008
same,Δlog(τ/KA),[6]; [16],2.11 ± 0.12
same,E′MAX,[7]; [17],3.9 ± 0.4 fold over basal
same,τ,[7]; [18],0.09 ± 0.01
same,Kd,[7]; [17],5.01 µM
same,EC50,[7]; [17],5.01 µM
same,RAi,[7]; [19],0.0058 ± 0.0007
same,Δlog(τ/KA),[7]; [20],2.24 ± 0.18
same,Emax,[8]; [21],36 ± 1%
same,τ,[8]; [22],0.69 ± 0.07
same,Kd,[8]; [21],1.58 µM
same,EC50,[8]; [21],0.933 µM
same,RAi,"[8]; M2 (↓cAMP), preferential response, relative to carbachol, Tables 2, 3, 7",0.029 ± 0.002
same,Δlog(τ/KA),[8]; [23],1.48 ± 0.15
"C[N+](C)(C)CCOC(N)=O [carbachol, reference compound]",E′MAX,[8]; [21],44 ± 1 % inhibition
same,Δlog(τ/KA),[8]; [23],0
same,E′MAX,"[8]; M2Gi (↓cAMP), Table 8",44 ± 1 % inhibition
same,Δlog(τ/KA),[8]; [24],0
"C[N+]1(Cc2cccs2)CC=CCC1.[I-] (centres unmarked) [Compound 7A, 1-methyl-1-[(thiophen-2-yl)methyl]-1,2,3,6-tetrahydropyridin-1-ium iodide]",Ki,[1],7.94 µM
same,E′MAX,[2]; [9],1.28 ± 0.05 fold over basal
same,EC50,[2]; [9],7.94 µM
same,RAi,[2]; [10],0.0007 ± 0.0002 and 0.0007 ± 0.0001
same,E′MAX,"[2]; M5Gq (↑IPX), Table 8",1.26 ± 0.05 fold over basal
same,RAi,"[2]; M5Gq (↑IPX), Table 8, relative to carbachol",0.0006 ± 0.0002
same,EC50,"[2]; M5Gq (↑IPX), Table 8",7.94 µM
same,Ki,[3],11.2 µM
same,Ki,[4]; [11],7.94 µM
same,Ki,[5],10 µM
same,E′MAX,[6]; [12],3.0 ± 0.3 fold over basal
same,τ,[6]; [13],0.08 ± 0.01
same,Kd,[6]; [14],3.16 µM
same,EC50,[6]; [12],3.16 µM
same,RAi,[6]; [15],0.011 ± 0.001
same,Δlog(τ/KA),[6]; [16],1.94 ± 0.20
same,E′MAX,"[6]; M3Gq (↑IPX), Table 8",2.6 ± 0.3 fold over basal
same,τ,"[6]; M3Gq (↑IPX), Table 8",0.06 ± 0.01
same,RAi,"[6]; M3Gq (↑IPX), Table 8, relative to carbachol",0.0084 ± 0.0011
same,Δlog(τ/KA),"[6]; M3Gq (↑IPX), Table 8, to carbachol",2.08 ± 0.34
same,EC50,"[6]; M3Gq (↑IPX), Table 8",3.98 µM
same,Kd,"[6]; M3Gq (↑IPX), Table 8",3.98 µM
same,E′MAX,[7]; [17],4.6 ± 0.4 fold over basal
same,τ,[7]; [18],0.12 ± 0.01
same,Kd,[7]; [17],3.16 µM
same,EC50,[7]; [17],2.63 µM
same,RAi,[7]; [19],0.0111 ± 0.0002
same,Δlog(τ/KA),[7]; [20],1.96 ± 0.16
same,E′MAX,"[7]; M1Gq (↑IPX), Table 8",4.6 ± 0.4 fold increase
same,pEC50,"[7]; M1Gq (↑IPX), Table 8",5.58 ± 0.03
same,pKA,"[7]; M1Gq (↑IPX), Table 8",5.5 ± 0.1
same,τ,"[7]; M1Gq (↑IPX), Table 8",0.12 ± 0.01
same,RAi,"[7]; M1Gq (↑IPX), Table 8, relative to carbachol",0.012 ± 0.006
same,Δlog(τ/KA),"[7]; M1Gq (↑IPX), Table 8, to carbachol",1.93 ± 0.25
same,Emax,[8]; [21],53 ± 2%
same,τ,[8]; [22],1.51 ± 0.15
same,Kd,[8]; [21],1 µM
same,EC50,[8]; [21],0.389 µM
same,E′MAX,"[8]; M2Gi (↓cAMP), Table 8",53 ± 2 % inhibition
same,pEC50,"[8]; M2Gi (↓cAMP), Table 8",6.41 ± 0.05
same,pKA,"[8]; M2Gi (↓cAMP), Table 8",6.0 ± 0.1
same,τ,"[8]; M2Gi (↓cAMP), Table 8",1.5 ± 0.2
same,RAi,"[8]; M2Gi (↓cAMP), Table 8, relative to carbachol",0.140 ± 0.008
same,Δlog(τ/KA),[8]; [24],0.93 ± 0.09
